According to PMC7849011, “Defining the Antimalarial Activity of Cipargamin in Healthy Volunteers Experimentally Infected with Blood-Stage Plasmodium falciparum” (Antimicrobial Agents and Chemotherapy, 2021):
In brackets after ≈: the same amount, converted by molar mass. Several values for one entry are separate records, joined by “and”; a condition that tells them apart may be missing. Equal entries are not always repeated. Where two headings read alike, the source gives them in different places.

How the values were obtained:
[1] = Safety assessment (adverse events, clinical laboratory, ECG); assay type: in vivo, human
Experimental: Safety assessments were performed throughout the study from screening and included adverse event reporting, physical examination, vital signs, clinical laboratory evaluation (hematology, biochemistry, and urinalysis), electrocardiography (ECG), and malaria clinical score recording. The malaria clinical score served as a clinical indication of the severity of the induced malaria infection; 14 signs and symptoms commonly associated with malaria were graded using a 3-point scale (0 = absent, 1 = mild, 2 = moderate, and 3 = severe), and the values were summed in order to generate an overall score (with a maximum possible score of 42). The severity of AEs was graded in accordance with the Common Terminology Criteria for Adverse Events, version 4.03 (https://evs.nci.nih.gov/ftp1/CTCAE/CTCAE_4.03/CTCAE_4.03_2010-06-14_QuickReference_5x7.pdf).

P. falciparum = conditions: cited from earlier work
rodent malaria model = test system: rodent malaria model; set-up: method as in PMID 20813948; conditions: cited from earlier work

SMILES: C[C@H]1Cc2c([nH]c3cc(Cl)c(F)cc23)[C@@]2(N1)C(=O)Nc1ccc(Cl)cc12 [cipargamin]
- Abdominal discomfort ([1]; 10 mg, N=8): 4 (50.0) n (%)
- Alanine aminotransferase increased ([1]; 10 mg, N=8): 2 (25.0) n (%)
- Arthralgia ([1]; 10 mg, N=8): 2 (25.0) n (%)
- Aspartate aminotransferase increased ([1]; 10 mg, N=8): 1 (12.5) n (%)
- Cardiac disorders (system organ class) ([1]; 10 mg, N=8): 1 (12.5) n (%)
- Chills ([1]; 10 mg, N=8): 3 (37.5) n (%)
- Decreased appetite ([1]; 10 mg, N=8): 3 (37.5) n (%)
- Diarrhoea ([1]; 10 mg, N=8): 2 (25.0) n (%)
- Drug-induced liver injury ([1]; 10 mg, N=8): 1 (12.5) n (%)
- Eye disorders (system organ class) ([1]; 10 mg, N=8): 1 (12.5) n (%)
- Gamma-glutamyltransferase increased ([1]; 10 mg, N=8): 2 (25.0) n (%)
- Gastrointestinal disorders (system organ class) ([1]; 10 mg, N=8): 5 (62.5) n (%)
- General disorders and administration site conditions (system organ class) ([1]; 10 mg, N=8): 6 (75.0) n (%)
- Haemoptysis ([1]; 10 mg, N=8): 1 (12.5) n (%)
- Head discomfort ([1]; 10 mg, N=8): 1 (12.5) n (%)
- Headache ([1]; 10 mg, N=8): 5 (62.5) n (%) and 5 n (%)
- Hepatobiliary disorders (system organ class) ([1]; 10 mg, N=8): 1 (12.5) n (%)
- Hyperhidrosis ([1]; 10 mg, N=8): 3 (37.5) n (%)
- Investigations (system organ class) ([1]; 10 mg, N=8): 3 (37.5) n (%)
- Lethargy ([1]; 10 mg, N=8): 4 (50.0) n (%)
- Liver function test abnormal ([1]; 10 mg, N=8): 1 (12.5) n (%)
- Liver tenderness ([1]; 10 mg, N=8): 1 (12.5) n (%)
- Malaise ([1]; 10 mg, N=8): 4 (50.0) n (%)
- Metabolism and nutrition disorders (system organ class) ([1]; 10 mg, N=8): 3 (37.5) n (%)
- Musculoskeletal and connective tissue disorders (system organ class) ([1]; 10 mg, N=8): 5 (62.5) n (%)
- Myalgia ([1]; 10 mg, N=8): 5 (62.5) n (%) and 5 n (%)
- Nausea ([1]; 10 mg, N=8): 1 (12.5) n (%)
- Neck pain ([1]; 10 mg, N=8): 1 (12.5) n (%)
- Nervous system disorders (system organ class) ([1]; 10 mg, N=8): 6 (75.0) n (%)
- Non-cardiac chest pain ([1]; 10 mg, N=8): 1 (12.5) n (%)
- Photophobia ([1]; 10 mg, N=8): 1 (12.5) n (%)
- Pyrexia ([1]; 10 mg, N=8): 6 (75.0) n (%) and 6 n (%)
- Rales ([1]; 10 mg, N=8): 1 (12.5) n (%)
- Rash ([1]; 10 mg, N=8): 1 (12.5) n (%)
- Respiratory, thoracic and mediastinal disorders (system organ class) ([1]; 10 mg, N=8): 3 (37.5) n (%)
- Rhinorrhoea ([1]; 10 mg, N=8): 1 (12.5) n (%)
- Skin and subcutaneous tissue disorders (system organ class) ([1]; 10 mg, N=8): 4 (50.0) n (%)
- Subjects with at least one adverse event ([1]; 10 mg, N=8): 8 (100) n (%)
- Tachycardia ([1]; 10 mg, N=8): 1 (12.5) n (%)
- Urticaria ([1]; 10 mg, N=8): 1 (12.5) n (%)
- AEs leading to discontinuation: No. (%) of subjects ([1]; 10 mg, 8 subjects): 0 (0)
- AEs leading to discontinuation: No. of AEs ([1]; 10 mg, 8 subjects): 0
- AEs mild in severity, of all AEs ([1]; 10 mg, 8 subjects): 68/89
- Any AEs, cipargamin related: No. (%) of subjects ([1]; 10 mg, 8 subjects): 4 (50.0)
- Any AEs, cipargamin related: No. of AEs ([1]; 10 mg, 8 subjects): 10
- Any AEs: No. (%) of subjects with at least 1 AE ([1]; 10 mg, 8 subjects): 8 (100)
- Any AEs: No. of AEs ([1]; 10 mg, 8 subjects): 89
- Moderate AEs (grade 2), cipargamin related: No. (%) of subjects ([1]; 10 mg, 8 subjects): 2 (25.0)
- Moderate AEs (grade 2), cipargamin related: No. of AEs ([1]; 10 mg, 8 subjects): 2
- Moderate AEs (grade 2): No. (%) of subjects ([1]; 10 mg, 8 subjects): 7 (87.5)
- Moderate AEs (grade 2): No. of AEs ([1]; 10 mg, 8 subjects): 18
- SAEs: No. (%) of subjects ([1]; 10 mg, 8 subjects): 3 (37.5)
- SAEs: No. of AEs ([1]; 10 mg, 8 subjects): 3
- Severe AEs (grade 3), cipargamin related: No. (%) of subjects ([1]; 10 mg, 8 subjects): 2 (25.0)
- Severe AEs (grade 3), cipargamin related: No. of AEs ([1]; 10 mg, 8 subjects): 2
- Severe AEs (grade 3): No. (%) of subjects ([1]; 10 mg, 8 subjects): 2 (25.0)
- Severe AEs (grade 3): No. of AEs ([1]; 10 mg, 8 subjects): 3
- hematology, urinalysis, or electrocardiogram (ECG) parameters ([1]; 10 mg, 8 subjects): no clinically significant abnormalities
- maximum ALT, times ULN ([1]; subject 1): 5.2 × ULN
- maximum AST ([1]; subject 1): 88 U/liter
- maximum AST, times ULN ([1]; subject 1): 2.2 × ULN
- maximum ALT ([1]; subject 1, onset 8 days after dosing): 208 U/liter
- ALT ([1]; subject 3, 8 days after dosing): 187 U/liter
- ALT, times ULN ([1]; subject 3, 8 days after dosing): 4.6 × ULN
- AST ([1]; subject 3, 8 days after dosing): 106 U/liter
- AST, times ULN ([1]; subject 3, 8 days after dosing): 2.6 × ULN
- GGT ([1]; subject 3, 8 days after dosing): 215 U/liter
- GGT, times ULN ([1]; subject 3, 8 days after dosing): 4.3 × ULN
- bilirubin ([1]; subject 3, 8 days after dosing): 74 µmol/L
- bilirubin, times ULN ([1]; subject 3, 8 days after dosing): 3.7 × ULN
- conjugated bilirubin ([1]; subject 3, 8 days after dosing): 22 µmol/L
- conjugated bilirubin, times ULN ([1]; subject 3, 8 days after dosing): 3.1 × ULN
- peak ALT, times ULN ([1]; subject 8): 24.1 × ULN
- peak AST ([1]; subject 8): 443 U/liter
- peak AST, times ULN ([1]; subject 8): 11 × ULN
- peak GGT ([1]; subject 8): 159 U/liter
- peak GGT, times ULN ([1]; subject 8): 3.1 × ULN
- peak ALT ([1]; subject 8, onset 11 days after dosing): 964 U/liter
- parasite clearance half-life (P. falciparum; 10 mg single dose, patients with P. falciparum malaria): 4.35 h
- parasite clearance half-life (P. falciparum; 30 mg per day for 3 days, P. falciparum malaria patients): 0.90 h
- parasite clearance half-life (P. falciparum; 30 mg single dose (highest tested), phase 2a): 1.47 h
- clearance of parasitemia in patients (P. falciparum; 3-day regimen of 30 mg daily, patients infected with P. falciparum or Plasmodium vivax, Thailand): demonstrated to clear parasitemia
- MIC estimated in patients (P. falciparum; patients with P. falciparum malaria, doses 10, 15, 20 and 30 mg): 0.1 ng/mL (≈ 0.256 nM)
- cure in rodent malaria model (rodent malaria model): single-dose cure was demonstrated
